Square brackets hold non-standard residues; d marks the D form. Ends that are not written are not given here. pY = N[C@@H](Cc1ccc(OP(=O)(O)O)cc1)C(=O)O
Test system: p110β/p85β-nic
Assay: ATPase activity (ADP formation) in the absence of lipid substrate, Transcreener
Format: biochemical, mouse
Conditions: p110β/p85-niSH2 and p110β/p85-icSH2 complexes; absence of lipid substrate
Experimental: Figure 1 Inhibition of p110β by p85-Type Regulatory Subunits and Activation of the Complexes by RTK Phosphopeptide (A) Domain organization of p110β and the regulatory subunits p85α, p85β, and p55γ. The color scheme for the domains is used for all figures, unless otherwise stated. […] The inhibition is released upon addition of the 10 μM PDGFR pY2. […] The y axis is expressed as a change in fluorescence polarization (ΔmP), which is obtained by subtracting the observed polarization for the construct at a given enzyme concentration from the maximum fluorescence polarization for that construct. The plateau in these assays arises due to the competitive nature of the ADP detection system, based on displacement of ADP-Alexa 633 tracer from the ADP^2-antibody by ADP generated during the PI3K assay (see Supplemental Experimental Procedures). All measurements were done in triplicates, and the error bars indicate the standard error of the mean (SEM). […]
The lipid kinase activity was determined using the Transcreener ADP2 FP Assay (BellBrook Labs, Madison, WI) according to manufacturer‟s specifications. This non-radioactive assay measures activity by quantitating the amount of ADP formed. The ADP formed by PI3K competes with fluorescent ADP tracer for binding to an anti-ADP antibody, thereby decreasing fluorescence polarization. […]

ESDGG[pY]MDMSKDESID[pY]VPMLDMKGDIKYADIE [pY2, bis-phosphopeptide (PDGFR 735–767, with pY740 and pY751)]
ATPase activity in the presence of pY2: enhanced
